# Test results from PubChem BioAssay AID2060511 (Molecular Pharmacology Branch, DTP, NCI, 2025).
# System: 422866-222-R5-J1-PDC spheroids with HUVEC/MSC, viability
# Assay: Anticancer human tumor 422866-222-R5-J1-PDC patient-derived pancreatic adenocarcinoma cell line growth inhibition [GQUAD]
# Details: for IC50: curve of first compound; for viability, T/C: stronger effect = lower value
# Procedure, shortened: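 Viability of tumor cells grown as complex spheroids with endothelial and stromal cells, exposed to drug combinations. Top concentration at or near clinical Cmax (else 10 microM), diluted in half-log increments.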
# [1] = second compound 0.0316 µM, first compound 0.0316 µM
# [2] = second compound 0.0316 µM, first compound 0.1 µM
# [3] = second compound 0.0316 µM, first compound 0.316 µM
# [4] = second compound 0.0316 µM, first compound 1 µM
# [5] = second compound 0.0316 µM, first compound 3.16 µM
# [6] = second compound 0.0316 µM, first compound 10 µM
# [7] = second compound 0.1 µM, first compound 0.0316 µM
# [8] = second compound 0.1 µM, first compound 0.1 µM
# [9] = second compound 0.1 µM, first compound 0.316 µM
# [10] = second compound 0.1 µM, first compound 1 µM
# [11] = second compound 0.1 µM, first compound 3.16 µM
# [12] = second compound 0.1 µM, first compound 10 µM
# [13] = second compound 0.316 µM, first compound 0.0316 µM
# [14] = second compound 0.316 µM, first compound 0.1 µM
# [15] = second compound 0.316 µM, first compound 0.316 µM
# [16] = second compound 0.316 µM, first compound 1 µM
# [17] = second compound 0.316 µM, first compound 3.16 µM
# [18] = second compound 0.316 µM, first compound 10 µM
# [19] = second compound 1 µM, first compound 0.0316 µM
# [20] = second compound 1 µM, first compound 0.1 µM
# [21] = second compound 1 µM, first compound 0.316 µM
# [22] = second compound 1 µM, first compound 1 µM
# [23] = second compound 1 µM, first compound 3.16 µM
# [24] = second compound 1 µM, first compound 10 µM
# [25] = second compound 3.16 µM, first compound 0.0316 µM
# [26] = second compound 3.16 µM, first compound 0.1 µM
# [27] = second compound 3.16 µM, first compound 0.316 µM
# [28] = second compound 3.16 µM, first compound 1 µM
# [29] = second compound 3.16 µM, first compound 3.16 µM
# [30] = second compound 3.16 µM, first compound 10 µM
# [31] = second compound 10 µM, first compound 0.0316 µM
# [32] = second compound 10 µM, first compound 0.1 µM
# [33] = second compound 10 µM, first compound 0.316 µM
# [34] = second compound 10 µM, first compound 1 µM
# [35] = second compound 10 µM, first compound 3.16 µM
# [36] = second compound 10 µM, first compound 10 µM
# 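Note: spheroids exposed to compounds for seven days before reading.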
# 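Throughout, for viability, T/C: percent viability relative to DMSO vehicle control taken as 100%.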
smiles,measurement,setting,value
C#Cc1c(F)ccc2cc(O)cc(-c3ncc4c(N5CC6CCC(C5)N6)nc(OCC56CCCN5CC(F)C6)nc4c3F)c12 (centres undefined) + Cc1cnc(CNC(=O)c2c(=O)c3ccc(N4CCCN(C)CC4)nc3n3c2sc2ccccc23)cn1,IC50,second compound 0.0316 µM,1.76 µM
same,IC50,second compound 0.1 µM,1.41 µM
same,IC50,second compound 0.316 µM,3.22 µM
same,IC50,second compound 1 µM,3.46 µM
same,IC50,second compound 3.16 µM,2.32 µM
same,IC50,second compound 10 µM,1.36 µM
same,"viability, T/C",[1],95.9%
same,"viability, T/C",[2],87%
same,"viability, T/C",[3],72%
same,"viability, T/C",[4],57.1%
same,"viability, T/C",[5],43%
same,"viability, T/C",[6],29.5%
same,"viability, T/C",[7],98.4%
same,"viability, T/C",[8],97.9%
same,"viability, T/C",[9],69.7%
same,"viability, T/C",[10],55.3%
same,"viability, T/C",[11],42.5%
same,"viability, T/C",[12],30.7%
same,"viability, T/C",[13],97%
same,"viability, T/C",[14],79.4%
same,"viability, T/C",[15],75.4%
same,"viability, T/C",[16],65.6%
same,"viability, T/C",[17],49.8%
same,"viability, T/C",[18],36.1%
same,"viability, T/C",[19],95.8%
same,"viability, T/C",[20],86.3%
same,"viability, T/C",[21],73.6%
same,"viability, T/C",[22],57.4%
same,"viability, T/C",[23],55%
same,"viability, T/C",[24],39.7%
same,"viability, T/C",[25],77.4%
same,"viability, T/C",[26],85.1%
same,"viability, T/C",[27],78.8%
same,"viability, T/C",[28],58.2%
same,"viability, T/C",[29],49.7%
same,"viability, T/C",[30],37%
same,"viability, T/C",[31],70.5%
same,"viability, T/C",[32],82%
same,"viability, T/C",[33],73%
same,"viability, T/C",[34],52.4%
same,"viability, T/C",[35],43.3%
same,"viability, T/C",[36],34.4%
CC(C)(O)C1CCC(Nc2ccc3ncc(-c4cccc(C(F)(F)F)c4)n3n2)CC1 (centres undefined) + Cc1cnc(CNC(=O)c2c(=O)c3ccc(N4CCCN(C)CC4)nc3n3c2sc2ccccc23)cn1,IC50,second compound 0.0316 µM,1.44 µM
same,IC50,second compound 0.1 µM,> 10 µM
same,IC50,second compound 0.316 µM,> 10 µM
same,IC50,second compound 1 µM,> 10 µM
same,IC50,second compound 3.16 µM,> 10 µM
same,IC50,second compound 10 µM,1.81 µM
same,"viability, T/C",[1],102%
same,"viability, T/C",[2],80.6%
same,"viability, T/C",[3],97.1%
same,"viability, T/C",[4],51.4%
same,"viability, T/C",[5],42%
same,"viability, T/C",[6],51.8%
same,"viability, T/C",[7],91.4%
same,"viability, T/C",[8],76.3%
same,"viability, T/C",[9],81.2%
same,"viability, T/C",[10],66.5%
same,"viability, T/C",[11],58.8%
same,"viability, T/C",[12],63.7%
same,"viability, T/C",[13],86.8%
same,"viability, T/C",[14],83.9%
same,"viability, T/C",[15],75.1%
same,"viability, T/C",[16],78.6%
same,"viability, T/C",[17],76.3%
same,"viability, T/C",[18],75.5%
same,"viability, T/C",[19],74.6%
same,"viability, T/C",[20],88.7%
same,"viability, T/C",[21],79.4%
same,"viability, T/C",[22],75.6%
same,"viability, T/C",[23],82.3%
same,"viability, T/C",[24],75.4%
same,"viability, T/C",[25],71.1%
same,"viability, T/C",[26],101%
same,"viability, T/C",[27],76%
same,"viability, T/C",[28],72.8%
same,"viability, T/C",[29],68.5%
same,"viability, T/C",[30],54.1%
same,"viability, T/C",[31],83%
same,"viability, T/C",[32],67.8%
same,"viability, T/C",[33],83.2%
same,"viability, T/C",[34],75.5%
same,"viability, T/C",[35],25.9%
same,"viability, T/C",[36],0.79%
